Here are results for 23 molecules from patent US9737542B2, “Pyrrolotriazine kinase inhibitors” (BRISTOL-MYERS SQUIBB COMPANY, priority 2013, dated 2017).

Structures are written as SMILES.

The test deals with GST-Xa-hAAK1 (Homo sapiens (Human), UniProt Q2M2I8). The test is described as follows: AAK1 Kinase Assay. Format: biochemical. The settings on record: ATP 22 μM, 3 hours at room temperature.
GST-Xa-hAAK1, sequence (Q2M2I8 whole entry): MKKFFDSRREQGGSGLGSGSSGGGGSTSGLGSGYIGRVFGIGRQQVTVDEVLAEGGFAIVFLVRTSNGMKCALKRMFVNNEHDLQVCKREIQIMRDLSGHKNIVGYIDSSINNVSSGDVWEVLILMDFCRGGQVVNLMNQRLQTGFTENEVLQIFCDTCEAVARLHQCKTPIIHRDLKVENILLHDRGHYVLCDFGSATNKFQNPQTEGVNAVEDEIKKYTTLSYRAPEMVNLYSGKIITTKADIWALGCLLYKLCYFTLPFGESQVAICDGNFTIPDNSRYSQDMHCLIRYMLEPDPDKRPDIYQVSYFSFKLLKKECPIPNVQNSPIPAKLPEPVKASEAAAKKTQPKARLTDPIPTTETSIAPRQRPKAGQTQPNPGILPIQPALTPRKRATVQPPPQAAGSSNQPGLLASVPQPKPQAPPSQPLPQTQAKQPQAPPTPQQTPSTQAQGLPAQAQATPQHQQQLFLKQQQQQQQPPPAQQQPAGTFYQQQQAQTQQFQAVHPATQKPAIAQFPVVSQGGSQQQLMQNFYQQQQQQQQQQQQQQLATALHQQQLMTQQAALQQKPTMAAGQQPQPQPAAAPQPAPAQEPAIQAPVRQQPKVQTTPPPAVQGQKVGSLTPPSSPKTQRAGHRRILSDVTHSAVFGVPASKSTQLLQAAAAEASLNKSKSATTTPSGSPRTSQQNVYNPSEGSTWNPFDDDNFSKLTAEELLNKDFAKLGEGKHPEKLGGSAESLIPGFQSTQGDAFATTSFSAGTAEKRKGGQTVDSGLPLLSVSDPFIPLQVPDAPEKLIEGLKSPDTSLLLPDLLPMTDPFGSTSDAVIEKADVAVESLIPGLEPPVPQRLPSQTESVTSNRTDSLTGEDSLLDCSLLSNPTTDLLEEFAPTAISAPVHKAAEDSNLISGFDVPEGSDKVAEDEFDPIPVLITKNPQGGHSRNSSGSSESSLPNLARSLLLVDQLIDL

Usually IC50 stands for the concentration needed to halve the response being measured. Higher therefore signals weaker potency in that assay. With `NC1CCN(Cc2ccn3ncnc(Nc4cccc(-c5csnn5)c4)c23)CC1` [Example 14, N-(3-(1,2,3-thiadiazol-4-yl)phenyl)-5-((4-aminopiperidin-1-yl)methyl)pyrrolo[2,1-f][1,2,4]triazin-4-amine], the IC50 (listed as IC50 ranges) is 0.1 to 1 µM.

`CCc1nnc(-c2cccc(Nc3ncnn4ccc(CN5CCC(N)CC5)c34)c2)[nH]1` [Example 15, 5-((4-aminopiperidin-1-yl)methyl)-N-(3-(5-ethyl-4H-1,2,4-triazol-3-yl)phenyl)pyrrolo[2,1-f][1,2,4]triazin-4-amine] gave an IC50 (listed as IC50 ranges) of 0.01 to 0.1 µM. For the setting “listed as IC50 ranges”, `NC1CCN(Cc2ccn3ncnc(Nc4cccc(-c5nc(-c6ccccc6)no5)c4)c23)CC1` [Example 16, 5-((4-aminopiperidin-1-yl)methyl)-N-(3-(3-phenyl-1,2,4-oxadiazol-5-yl)phenyl)pyrrolo[2,1-f][1,2,4]triazin-4-amine] gave an IC50 of 0.1 to 1 µM.

As to `Cc1nnc(-c2cccc(Nc3ncnn4ccc(CN5CCC(N)CC5)c34)c2)s1` [Example 17, 5-((4-aminopiperidin-1-yl)methyl)-N-(3-(5-methyl-1,3,4-thiadiazol-2-yl)phenyl)pyrrolo[2,1-f][1,2,4]triazin-4-amine], the IC50 (listed as IC50 ranges) is 0.1 to 1 µM. On to `CNC1CCN(Cc2ccn3ncnc(Nc4cccc(-c5nnc(C)s5)c4)c23)CC1` [Example 18, N-(3-(5-methyl-1,3,4-thiadiazol-2-yl)phenyl)-5-((4-(methylamino)piperidin-1-yl)methyl)pyrrolo[2,1-f][1,2,4]triazin-4-amine], for which the IC50 (listed as IC50 ranges) was 0.1 to 1 µM. As for `Cc1nnc(-c2cccc(Nc3ncnn4ccc(CN5CC(N)C5)c34)c2)s1` [Example 19, 5-((3-aminoazetidin-1-yl)methyl)-N-(3-(5-methyl-1,3,4-thiadiazol-2-yl)phenyl)pyrrolo[2,1-f][1,2,4]triazin-4-amine], the IC50 worked out at 2.12 µM.

The molecule `Cc1nnc(-c2cccc(Nc3ncnn4ccc(CN5CC6CNCC6C5)c34)c2)s1` (centres unmarked) [Example 20, 5-((hexahydropyrrolo[3,4-c]pyrrol-2(1H)-yl)methyl)-N-(3-(5-methyl-1,3,4-thiadiazol-2-yl)phenyl)pyrrolo[2,1-f][1,2,4]triazin-4-amine] gave an IC50 (listed as IC50 ranges) of 1 to 5 µM.

`CCCc1nnc(-c2cccc(Nc3ncnn4ccc(CN5CCC(N)CC5)c34)c2)s1` [Example 21, 5-((4-aminopiperidin-1-yl)methyl)-N-(3-(5-propyl-1,3,4-thiadiazol-2-yl)phenyl)pyrrolo[2,1-f][1,2,4]triazin-4-amine] returned an IC50 (listed as IC50 ranges) of 0.01 to 0.1 µM. Molecule `NC1CCN(Cc2ccn3ncnc(Nc4cccc(-c5noc(C6CCCCC6)n5)c4)c23)CC1` [Example 22, 5-((4-aminopiperidin-1-yl)methyl)-N-(3-(5-cyclohexyl-1,2,4-oxadiazol-3-yl)phenyl)pyrrolo[2,1-f][1,2,4]triazin-4-amine] returned an IC50 of 0.014 µM. Regarding `NC1CCN(Cc2ccn3ncnc(Nc4cccc(-c5nnc(C6CC6)s5)c4)c23)CC1` [Example 23, 5-((4-aminopiperidin-1-yl)methyl)-N-(3-(5-cyclopropyl-1,3,4-thiadiazol-2-yl)phenyl)pyrrolo[2,1-f][1,2,4]triazin-4-amine], the IC50 (listed as IC50 ranges) is 0.1 to 1 µM. For `CNC1CCN(Cc2ccn3ncnc(Nc4cccc(-c5nnc(C6CC6)s5)c4)c23)CC1` [Example 24, N-(3-(5-cyclopropyl-1,3,4-thiadiazol-2-yl)phenyl)-5-((4-(methylamino)piperidin-1-yl)methyl)pyrrolo[2,1-f][1,2,4]triazin-4-amine], the IC50 (listed as IC50 ranges) fell in the range of 0.01 to 0.1 µM. Still for that read-out and setting: in the case of `NC1CN(Cc2ccn3ncnc(Nc4cccc(-c5nnc(C6CC6)s5)c4)c23)C1` [Example 25, 5-((3-aminoazetidin-1-yl)methyl)-N-(3-(5-cyclopropyl-1,3,4-thiadiazol-2-yl)phenyl)pyrrolo[2,1-f][1,2,4]triazin-4-amine] it was 0.1 to 1 µM. For the molecule `c1cc(Nc2ncnn3ccc(CN4CC5CNCC5C4)c23)cc(-c2nnc(C3CC3)s2)c1` (centres unmarked) [Example 26, N-(3-(5-cyclopropyl-1,3,4-thiadiazol-2-yl)phenyl)-5-((hexahydropyrrolo[3,4-c]pyrrol-2(1H)-yl)methyl)pyrrolo[2,1-f][1,2,4]triazin-4-amine], for the setting “listed as IC50 ranges”, the IC50 lay in the range of 0.1 to 1 µM. The molecule `CNC1CCN(Cc2ccn3ncnc(Nc4cccc(-c5nnc(C(C)C)s5)c4)c23)CC1` [Example 27, N-(3-(5-isopropyl-1,3,4-thiadiazol-2-yl)phenyl)-5-((4-(methylamino)piperidin-1-yl)methyl)pyrrolo[2,1-f][1,2,4]triazin-4-amine] had an IC50 (listed as IC50 ranges) of 0.1 to 1 µM. On the same count and under the same terms, then `CC(C)c1nnc(-c2cccc(Nc3ncnn4ccc(CN5CC(N)C5)c34)c2)s1` [Example 28, 5-((3-aminoazetidin-1-yl)methyl)-N-(3-(5-isopropyl-1,3,4-thiadiazol-2-yl)phenyl)pyrrolo[2,1-f][1,2,4]triazin-4-amine], with 0.1 to 1 µM; and `CC(C)c1nnc(-c2cccc(Nc3ncnn4ccc(CN5CC6CNCC6C5)c34)c2)s1` (centres unmarked) [Example 29, 5-((hexahydropyrrolo[3,4-c]pyrrol-2(1H)-yl)methyl)-N-(3-(5-isopropyl-1,3,4-thiadiazol-2-yl)phenyl)pyrrolo[2,1-f][1,2,4]triazin-4-amine], with 0.1 to 1 µM. Still for that read-out and setting: in the case of `CNC1CCN(Cc2ccn3ncnc(Nc4cccc(-c5nnc(C(C)C)s5)c4)c23)C1` (centres unmarked) [Example 30, N-(3-(5-isopropyl-1,3,4-thiadiazol-2-yl)phenyl)-5-((3-(methylamino)pyrrolidin-1-yl)methyl)pyrrolo[2,1-f][1,2,4]triazin-4-amine] it was 0.1 to 1 µM.

In turn, `CC(C)c1nnc(-c2cccc(Nc3ncnn4ccc(CN5CCC(CN)C5)c34)c2)s1` (centres unmarked) [Example 31, 5-((3-(aminomethyl)pyrrolidin-1-yl)methyl)-N-(3-(5-isopropyl-1,3,4-thiadiazol-2-yl)phenyl)pyrrolo[2,1-f][1,2,4]triazin-4-amine] came in with an IC50 (listed as IC50 ranges) of 0.1 to 1 µM. Still for that read-out and setting: then `CC(C)c1nnc(-c2cccc(Nc3ncnn4ccc(CN5CCC(N)C5)c34)c2)s1` (centres unmarked) [Example 32, 5-((3-aminopyrrolidin-1-yl)methyl)-N-(3-(5-isopropyl-1,3,4-thiadiazol-2-yl)phenyl)pyrrolo[2,1-f][1,2,4]triazin-4-amine], with 0.1 to 1 µM; and `CC(C)CNC(=O)c1cccc(Nc2ncnn3ccc(CN4CCC(N)CC4)c23)c1` [Example 33, 3-((5-((4-aminopiperidin-1-yl)methyl)pyrrolo[2,1-f][1,2,4]triazin-4-yl)amino)-N-isobutylbenzamide], with 0.01 to 0.1 µM; and `CC(C)n1nnc(-c2cccc(Nc3ncnn4ccc(CN5CCNCC5)c34)c2)n1` [Example 34, N-(3-(2-isopropyl-2H-tetrazol-5-yl)phenyl)-5-(piperazin-1-ylmethyl)pyrrolo[2,1-f][1,2,4]triazin-4-amine], with 0.01 to 0.1 µM. Consider `CC(C)c1nnc(-c2cccc(Nc3ncnn4ccc(CN5CCNCC5)c34)c2)s1` [Example 35, N-(3-(5-isopropyl-1,3,4-thiadiazol-2-yl)phenyl)-5-(piperazin-1-ylmethyl)pyrrolo[2,1-f][1,2,4]triazin-4-amine], for which the IC50 (listed as IC50 ranges) lay in the range of 0.1 to 1 µM.

`CC(C)n1nnc(-c2cc(O)cc(Nc3ncnn4ccc(CN5CCC(N)CC5)c34)c2)n1` [Example 36, 3-((5-((4-aminopiperidin-1-yl)methyl)pyrrolo[2,1-f][1,2,4]triazin-4-yl)amino)-5-(2-isopropyl-2H-tetrazol-5-yl)phenol]: the IC50 was 0.0033 µM.
